Data set [1] deals with mixed lymphocyte reaction (PBMC with allogeneic PBMC or Eppstein-Barr Virus-transformed human B cells as stimulator cells). Nature of the data set: Mixed lymphocyte reaction (MLR) assay. Type of data set: cell-based. The following applies: lowest concentration giving 50% suppression of the MLR; [3H]-thymidine.
Data set [2] concerns production of TNF-α by PBMC in response to stimulation by LPS. As to the kind of experiment: TNF-α assay. Format: cell-based, human. The following applies: LPS 1 μg/ml, 72 hours, sandwich ELISA. The essentials: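 Cells were LPS-stimulated (1 μg/ml final) peripheral blood mononuclear cells at 10^6/ml, exposed 72 h at 37 °C to 0.1, 1 or 10 μM test compound.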
A general note: ELISA stands for enzyme-linked immunosorbent assay.

The test system of data set [3] is production of IL-1 β by PBMC in response to stimulation by LPS. Nature of the data set: IL-1 β assay. Type of data set: cell-based, human. The following applies: LPS 1 μg/ml, 72 hours, sandwich ELISA. The procedure: Peripheral blood mononuclear cells (herein referred as PBMC), in response to stimulation by lipopolysaccharide (LPS), a gram-negative bacterial endotoxin, produce various […], in particular human IL-1 β. Inhibition of the activation of PBMC can therefore be measured by the level of suppression of the production of IL-1 β by PBMC in response to stimulation by LPS.
Such inhibition measurement was performed as follows: PBMC were isolated from heparinized peripheral blood by density gradient centrifugation over Lymphoprep (commercially available from Nycomed, Norway). LPS was then added to the PMBC suspension in complete medium (10^6 cells/ml) at a final concentration of 1 μg/ml. The pteridine derivative to be tested was added at different concentrations (0.1 μM, 1 μM and 10 μM) and the cells were incubated at 37° C. for 72 hours in 5% CO2. The supernatants were collected, then IL-1 β concentrations were measured with an anti-IL-1 β antibody in a sandwich ELISA. The calorimetric reading of the ELISA was measured by a Multiskan RC plate reader (commercially available from ThermoLabsystems, Finland) at 450 nm (reference wavelength: 690 nm). Data analysis was performed with Ascent software 2.6. (also from ThermoLabsystems, Finland): a standard curve (recombinant human IL-1 β) was drawn and the amount (pg/ml) of each sample on the standard curve was determined.
The % suppression of human IL-1 β by the pteridine derivatives (drugs) of this invention was calculated using the formula: [formula]

The test system of data set [4] is LPS-induced shock in C3H mice. Nature of the data set: Model of protection against septic shock (LPS). The following applies: 100 μg LPS i.p., 20 mg/kg/day i.p. at time of injection and 24 hours later. Format: in vivo. Here is the method:
As a control group, 4 sham treated (saline injection) C3H mice being injected intraperitoneously with 100 μg lipopolysaccharide (hereinafter LPS) per mouse, all died within 1 to 3 days after injection.

For data set [5], the system named is B16BL/6 melanomasarcoma cells in C57BL/6 mice. As to the kind of experiment: Inhibition of the metastasis of melanoma cells in mice. Format: in vivo. The following applies: for proportion of mice having metastasis: inguinal and/or para-aortic lymph nodes. Here is the method: C57BL/6 mice were injected with 1.5×10^6 B16BL/6 melanomasarcoma cells subcutaneously in the foot path and were divided, three days later, into 4 groups: • a control 1 group of 6 mice receiving only vehicle 3 times a week; • a control 2 group of 5 mice receiving a lethal dose of TNF (15 μg, subcutaneously) 3 times a week; • a group 3 receiving the pteridine derivative of example 17 alone 3 times a week at 20 mg/kg • a group 4 of 7 mice receiving the pteridine derivative of example 17 in an amount of 20 mg/kg intraperitenously on days 3, 4, and 5 and also receiving TNF (15 μg, subcutaneously) on day 5. This combined treatment with TNF and the pteridine derivative of example 17 was continued for 2 weeks.
Reduction of tumor size is also true in mice of group 3, although to a lesser extent (198 mm^2).
All mice of control group 2 died within the very first days of treatment, whereas mortality was 3/7 in mice of group 4.
At the end of experiment, it was looked macroscopically at black metastasis in inguinal and/or para-aortic lymphoneuds in all tumor bearing groups of mice. The proportions of mice having metastasis were: • 4/5 mice in control group 1, • 0/4 mice in group 4, and • 2/4 in group 3.

Setting [6] is: group 4: example 17 20 mg/kg i.p. combined with TNF 15 μg s.c.

Molecules are shown by their SMILES.

As usually defined, the IC50 is the concentration at which inhibition is half-maximal. Read a low IC50 as higher potency. As to `COc1ccc(-c2cnc3nc(N)nc(N4CCN(c5ccc(C)cc5)CC4)c3n2)cc1OC` [Example 176, 2-amino-6-(3,4-dimethoxyphenyl)-4-((4-methylphenyl)-piperazin-1-yl)pteridine], the half-maximal inhibitory concentration (IC50) is 0.3 µM in data set [1], under 0.01 µM in data set [2] and 4.9 µM in data set [3].
Regarding `COc1ccc(-c2cnc3nc(N)nc(N4CCN(C(=O)COc5ccccc5)CC4)c3n2)cc1OC` [Example 17, 2-amino-4-[(N-phenoxyacetyl)-piperazin-1-yl]-6-(3,4-dimethoxy-phenyl)pteridine], the IC50 turned out to be 0.0038 µM in data set [1], 0.08 µM in data set [2] and 2.8 µM in data set [3]. In data set [4], the “protection from acute shock related mortality” value was “all mice were protected from acute shock related mortality”. Further, the tumor size in data set [5] (group 3: example 17 alone 3 times a week at 20 mg/kg) is 198 mm^2; in data set [5] (setting [6]) it was 120 mm^2. Moreover, the “proportion of mice having metastasis” value in data set [5] (group 3: example 17 alone) is reported as 2/4; in data set [5] (group 4: example 17 combined with TNF) it was 0/4. The mortality in data set [5] (setting [6]) is given as 3/7.

The values above are taken from patent US20070032477A1, “Pteridine derivatives useful for making pharmaceutical compositions” (priority 2003, published 2007).
